{"source": "PubChem BioAssay AID602445", "about": "(National Center for Advancing Translational Sciences (NCATS), 2012)", "system": "mouse liver microsomes with NADPH, percent remaining", "test": "High Content Assay for Compounds that inhibit the Assembly of the Perinucleolar Compartment: Mouse Liver Microsome Stability with NADPH", "settings": "stronger effect = lower value", "description": "The perinucleolar compartment (PNC) is a non-membrane-bound nuclear subdomain that is associated with but structurally distinct from the nucleolus. The PNC is a heritable trait, in which the number of PNCs per cell in daughter cells often mimics that of their mother cells. The PNC is heterogeneous in shape, is stable through interphase, disassembles during mitosis, and reassembles in early G1. The PNC is concentrated with newly synthesized RNA polymerase III (pol III) RNAs (MRP RNA, RNAse P H1 RNA, hY RNAs[hY1, 2, 5], Alu RNA, and SRP [7SL] RNA) and RNA binding proteins (nucleolin, PTB, CUG-BP, KSRP, Raver1, Raver2, and Rod).\nExtensive in vitro studies have shown that the PNC is unique to tumor cells and preferentially forms in tumor cells derived from solid tissues. Examination of cancer cell lines from various origins and malignant capacities has shown that PNC prevalence correlates with the malignancy of tumors and has the potential to be developed as a pan-cancer prognostic marker.\nMouse liver microsomes are generated from lysed mouse liver. […]\n1uM of compound in incubated in mouse liver microsome; the reference compound is ketanserin. […] Samples are analyzed with LC-MS/MS."}
{"smiles": "N=c1c2c(-c3ccccc3)c(-c3ccccc3)n(Cc3ccccc3)c2ncn1C1CCC(O)CC1", "note": "(stereo unspecified)", "values": [{"measurement": "percent remaining", "value": 107, "unit": "%"}]}
